One molecule from US20080138395A1, “Pharmaceutical Composition for the Prevention and Control of Cancer” (priority 2005, published 2008) can be followed below.

SMILES strings stand for the structures.

This experiment concerns H69: human, small cell lung carcinoma. Nature of the experiment: Apoptosis (Annexin testing system) and defective cells in H69 tumor cells in vitro. It is filed as cell-based. Conditions: 10 days of treatment. The source says:
The effect of reduced glutathion (G-SH) and anthocyans and betacyans on tumor cell lines, specifically H69: human, small cell lung carcinoma, was examined by in vitro studies, both individually and with various combinations of the ingredient. G-SH and betalain were used in the form of dry extract from beta vulgaris (product: Betatom by Messrs. Sprüh-Atom Schumann & Sohn GmbH, Karlsruhe) and, for purposes of comparison, anthocyans in the form of dry extract from cassis (black currant) and vaccinium (blueberry). The tumor cells were sown in vitro in DMEM with 10% FCS. The final concentration of G-SH, Betatom, cassis and vaccinium, the substances added, was 1 mM. Apoptosis was measured with an Annexin testing system. All tests were repeated once. The effect on H69 tumor cells may be gathered from the table below. After treatment of the cells for ten days, the number both of apoptotic and defective cells was clearly higher in comparison with untreated controls.

[1] abbreviates: 1 mM, difference to untreated control.
[2] abbreviates: final concentration of substances added 1 mM, DMEM with 10% FCS.

Take `N[C@@H](CCC(=O)N[C@@H](CS)C(=O)NCC(=O)O)C(=O)O` [GSH, gamma glutamyl cysteinyl glycin]: under setting [1], the “apoptotic cells: variation compared with control (%)” value is −5% and the “defective cells: variation compared with control (%)” value is on record as 8.9%. Under setting [2], the “apoptotic cells (% of total cells)” value is given as 21.9 % of total cells and the “defective cells (% of total cells)” value is listed as 37.9 % of total cells.
